Test results published in patent publication US20220072149A1, “BIOLOGICALLY ACTIVE CLUSTER OF MOLECULES” (priority 2018, published 2022).

Tests used:
HER14 cells = assay: viability assay with HER14 cells (MTT); type: cell-based; conditions: 0.1 nM dianthin-EGF, 72 h
Protocol: To test the efficacy of the invention, we conducted a viability assay with HER14 cells. These cells are fibroblasts stably transfected with the human epidermal growth factor receptor and therefore target cells for the targeted toxin dianthin-EGF. HER14 cells (2,000 cells/100 μL/well) were seeded into wells of 96-well-cell culture plates and incubated for 24 h in DMEM medium supplemented with 10% fetal calf serum and 1% penicillin/streptomycin at 37° C., 5% CO2 and 98% humidity. The different test substances (see results and FIG. 21) were then added in triplicates in a volume of 25 μL and supplemented with further 25 μL of medium. After an incubation of 72 h, 30 μL 3-(4,5-dimethylthiazol-2-yl)-2,5-diphenyltetrazolium bromide (0.5 mg/mL in water) was added per well and incubated for 2 h. Thereafter, the medium was carefully removed and replaced by an aqueous solution containing 10% (v/v) isopropanol, 5% (w/v) sodium dodecyl sulfate and 400 mM HCl, and incubated for 5 min. Solubilized formazan was photometrically quantitated at […] in a microplate reader (Spectra MAX 340 PC, Molecular Devices, Sunnyvale, Calif., USA). Untreated cells were normalized to 1 and all samples referred to the untreated control. Significance was determined by unpaired two-sample t-tests.

HeLa cells = assay: HeLa cell viability assay (MTS): inhibition of SO1861-mediated endosomal escape by polymeric structures; type: cell-based, human; conditions: […] dianthin-EGF + SO1861 curve, PAMAM 500 nM, chloroquine 500 nM, dendron 667 nM, 72 hr
Protocol: HeLa cells were seeded in DMEM (PAN-Biotech GmbH) supplemented with 10% fetal bovine serum (PAN-Biotech GmbH) and 1% penicillin/streptomycin (PAN-Biotech GmbH), in a 96 well plate at 5,000 c/w in 100 μL/well and incubated overnight at 37° C. and 5% CO2. The next day 20× concentrated stocks of the PAMAM, PAMAM-conjugates, G4-dendron (prepared in Example 3) or chloroquine (Sigma Aldrich) samples were prepared in DMEM. The media was removed from the cell culture plate and replaced by […] culture media, followed by the addition of 10 μL sample/well (from the 20× concentrated stocks) and a 45 min incubation at 37° C. […] Followed by 15 sec sonication and a brief re-heating at 50° C. for 1 min, while shaking at 1,250 rpm. Subsequently a serial dilution of SO1861 was prepared in PBS.
As control for the inhibition of endosomal acidification chloroquine was used.

Structure (SMILES): C[C@@H]1O[C@@H](O[C@H]2[C@H](OC(=O)[C@]34CCC(C)(C)C[C@H]3C3=CC[C@@H]5[C@@]6(C)CC[C@H](O[C@H]7O[C@H](C(=O)O)[C@@H](O)[C@H](O[C@@H]8OC[C@@H](O)[C@H](O)[C@H]8O)[C@H]7O[C@@H]7O[C@H](CO)[C@H](O)[C@H](O)[C@H]7O)[C@@](C)(C=O)[C@@H]6CC[C@@]5(C)[C@]3(C)CC4)O[C@H](C)[C@H](O[C@@H]3O[C@H](C)[C@@H](O)[C@H](O)[C@H]3O)[C@@H]2O)[C@H](O)[C@H](O)[C@H]1O[C@@H]1OC[C@@H](O)[C@H](O[C@@H]2OC[C@@H](O)[C@H](O)[C@H]2O)[C@H]1O [SA1641]
- effect on the toxicity of dianthin-EGF (HER14 cells): death of al cells

Structure (SMILES): CCN(CC)CCCC(C)Nc1ccnc2cc(Cl)ccc12 (centres unmarked) [chloroquine]
- inhibition of SO1861-mediated endosomal escape of the targeted toxin and subsequent cell killing (HeLa cells): inhibit
